Test results as given in patent US9834518B2, “Compounds for inhibiting cell proliferation in EGFR-driven cancers” (ARIAD Pharmaceuticals, Inc., priority 2011, dated 2017).

How the values were obtained:
[1] = molecular target: human EGFR (native sequence) (Homo sapiens, UniProt P00533); test: Kinase inhibition, human EGFR (native sequence); format: biochemical; settings: 10 μM ATP; 10 pt curves, 3 μM top concentration (singlicates)
Method: (§1) Kinase inhibitory activity of the compounds was measured against human EGFR (native sequence) and against EGFR bearing the L858R mution and the L858R/T790M double mutation (EGFR, L858R, and L858R/T790M, respectively in Table 1). Additional assays can be conducted with EGFR deletion mutants such as delE746-A750 with or without the additional T790M mutation. Assay conditions included 10 pt curves with 3 μM top concentration (singlicates) and 10 μM ATP.

[2] = molecular target: EGFR bearing the L858R mution (Homo sapiens, UniProt P00533, L858R); test: Kinase inhibition, EGFR L858R; format: biochemical; settings: 10 μM ATP; 10 pt curves, 3 μM top concentration (singlicates)
Method: as §1

[3] = molecular target: EGFR bearing the L858R/T790M double mutation (Homo sapiens, UniProt P00533, L858R/T790M); test: Kinase inhibition, EGFR L858R/T790M; format: biochemical; settings: 10 μM ATP; 10 pt curves, 3 μM top concentration (singlicates)
Method: as §1

BAF3 PARENTAL = test: Cell proliferation (MTT), BAF3 parental; format: cell-based; settings: Mus musculus
Method: (§2) We also assessed the antiproliferative activity of compounds of Formula (I) against BaF3 cells expressing the target EGFR mutations or control (i.e., cell lines expressing wildtype EGFR). Assays were conducted using MTT.

[4] = molecular target: BAF3 EGFR DEL T790M PURO POOL (Homo sapiens, UniProt P00533, DEL746-750/T790M, cells depend on it); test: Cell proliferation (MTT), BAF3 EGFR DEL T790M; format: cell-based
Method: as §2

[5] = tested on: BAF3 EGFR L858R-T790M PURO POOL; test: Cell proliferation (MTT), BAF3 EGFR L858R-T790M; format: cell-based; settings: Ba/F3 EGFR
Method: as §2

Sequence of human EGFR (native sequence) (P00533 25-1210): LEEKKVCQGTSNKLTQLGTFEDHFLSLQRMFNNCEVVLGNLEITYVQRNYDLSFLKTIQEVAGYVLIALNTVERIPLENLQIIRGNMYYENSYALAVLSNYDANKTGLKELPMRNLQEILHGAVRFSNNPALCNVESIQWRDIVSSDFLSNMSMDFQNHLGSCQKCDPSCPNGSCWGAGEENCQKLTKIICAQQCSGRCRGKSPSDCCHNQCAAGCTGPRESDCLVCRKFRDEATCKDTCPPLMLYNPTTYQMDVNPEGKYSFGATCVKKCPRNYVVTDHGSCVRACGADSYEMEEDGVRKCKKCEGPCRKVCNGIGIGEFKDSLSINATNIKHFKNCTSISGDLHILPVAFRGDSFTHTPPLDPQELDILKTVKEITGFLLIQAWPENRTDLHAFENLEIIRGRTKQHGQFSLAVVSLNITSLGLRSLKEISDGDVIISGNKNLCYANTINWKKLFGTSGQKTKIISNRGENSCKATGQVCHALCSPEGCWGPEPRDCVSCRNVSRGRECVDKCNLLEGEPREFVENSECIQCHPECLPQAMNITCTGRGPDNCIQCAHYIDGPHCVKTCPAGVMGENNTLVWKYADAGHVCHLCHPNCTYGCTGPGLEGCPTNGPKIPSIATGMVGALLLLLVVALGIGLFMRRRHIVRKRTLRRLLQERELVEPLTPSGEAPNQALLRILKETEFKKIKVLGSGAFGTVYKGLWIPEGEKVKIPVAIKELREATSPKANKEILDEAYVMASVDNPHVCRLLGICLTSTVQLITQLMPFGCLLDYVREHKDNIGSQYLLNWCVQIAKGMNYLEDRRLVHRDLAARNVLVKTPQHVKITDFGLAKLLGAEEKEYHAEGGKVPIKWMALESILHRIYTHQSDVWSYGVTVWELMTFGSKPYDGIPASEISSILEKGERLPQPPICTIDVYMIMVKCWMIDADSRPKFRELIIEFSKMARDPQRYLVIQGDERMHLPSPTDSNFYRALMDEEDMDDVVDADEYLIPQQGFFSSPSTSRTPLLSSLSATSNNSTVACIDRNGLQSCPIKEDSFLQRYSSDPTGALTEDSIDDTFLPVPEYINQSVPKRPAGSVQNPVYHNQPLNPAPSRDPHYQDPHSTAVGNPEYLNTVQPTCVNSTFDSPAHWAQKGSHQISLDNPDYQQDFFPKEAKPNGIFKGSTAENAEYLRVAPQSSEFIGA
Sequence of BAF3 EGFR DEL T790M PURO POOL (P00533 with tags, fused parts or gaps DEL746-750/T790M): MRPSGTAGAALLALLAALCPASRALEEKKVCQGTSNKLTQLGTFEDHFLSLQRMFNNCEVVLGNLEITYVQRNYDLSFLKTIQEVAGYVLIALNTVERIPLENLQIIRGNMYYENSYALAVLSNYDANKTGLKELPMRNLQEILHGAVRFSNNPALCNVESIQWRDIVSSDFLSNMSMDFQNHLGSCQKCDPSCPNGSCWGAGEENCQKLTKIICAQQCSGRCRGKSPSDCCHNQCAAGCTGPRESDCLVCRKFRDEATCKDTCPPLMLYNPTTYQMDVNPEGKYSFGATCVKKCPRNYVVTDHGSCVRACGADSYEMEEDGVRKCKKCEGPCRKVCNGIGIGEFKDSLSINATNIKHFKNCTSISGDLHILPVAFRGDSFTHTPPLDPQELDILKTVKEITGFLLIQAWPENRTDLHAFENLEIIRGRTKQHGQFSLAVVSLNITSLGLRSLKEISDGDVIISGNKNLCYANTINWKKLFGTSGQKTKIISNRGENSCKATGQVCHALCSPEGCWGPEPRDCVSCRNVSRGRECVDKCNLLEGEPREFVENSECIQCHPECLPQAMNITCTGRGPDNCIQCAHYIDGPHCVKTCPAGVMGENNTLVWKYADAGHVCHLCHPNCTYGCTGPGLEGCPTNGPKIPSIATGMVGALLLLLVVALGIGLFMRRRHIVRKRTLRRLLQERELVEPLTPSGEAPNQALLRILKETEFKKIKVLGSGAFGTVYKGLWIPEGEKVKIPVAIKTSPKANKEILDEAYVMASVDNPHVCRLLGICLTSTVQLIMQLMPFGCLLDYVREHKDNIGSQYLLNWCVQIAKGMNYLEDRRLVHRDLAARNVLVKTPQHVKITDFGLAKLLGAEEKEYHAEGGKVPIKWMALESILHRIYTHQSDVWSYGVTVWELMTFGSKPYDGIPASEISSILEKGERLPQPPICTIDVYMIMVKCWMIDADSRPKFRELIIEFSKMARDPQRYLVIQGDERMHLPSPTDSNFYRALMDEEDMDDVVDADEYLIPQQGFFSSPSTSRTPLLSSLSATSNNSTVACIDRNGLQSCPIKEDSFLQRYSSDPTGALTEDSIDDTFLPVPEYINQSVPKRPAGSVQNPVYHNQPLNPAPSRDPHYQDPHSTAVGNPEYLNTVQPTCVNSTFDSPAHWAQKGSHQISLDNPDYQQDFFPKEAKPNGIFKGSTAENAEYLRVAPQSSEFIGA
Sequence of EGFR bearing the L858R mution (P00533 25-1210 L858R): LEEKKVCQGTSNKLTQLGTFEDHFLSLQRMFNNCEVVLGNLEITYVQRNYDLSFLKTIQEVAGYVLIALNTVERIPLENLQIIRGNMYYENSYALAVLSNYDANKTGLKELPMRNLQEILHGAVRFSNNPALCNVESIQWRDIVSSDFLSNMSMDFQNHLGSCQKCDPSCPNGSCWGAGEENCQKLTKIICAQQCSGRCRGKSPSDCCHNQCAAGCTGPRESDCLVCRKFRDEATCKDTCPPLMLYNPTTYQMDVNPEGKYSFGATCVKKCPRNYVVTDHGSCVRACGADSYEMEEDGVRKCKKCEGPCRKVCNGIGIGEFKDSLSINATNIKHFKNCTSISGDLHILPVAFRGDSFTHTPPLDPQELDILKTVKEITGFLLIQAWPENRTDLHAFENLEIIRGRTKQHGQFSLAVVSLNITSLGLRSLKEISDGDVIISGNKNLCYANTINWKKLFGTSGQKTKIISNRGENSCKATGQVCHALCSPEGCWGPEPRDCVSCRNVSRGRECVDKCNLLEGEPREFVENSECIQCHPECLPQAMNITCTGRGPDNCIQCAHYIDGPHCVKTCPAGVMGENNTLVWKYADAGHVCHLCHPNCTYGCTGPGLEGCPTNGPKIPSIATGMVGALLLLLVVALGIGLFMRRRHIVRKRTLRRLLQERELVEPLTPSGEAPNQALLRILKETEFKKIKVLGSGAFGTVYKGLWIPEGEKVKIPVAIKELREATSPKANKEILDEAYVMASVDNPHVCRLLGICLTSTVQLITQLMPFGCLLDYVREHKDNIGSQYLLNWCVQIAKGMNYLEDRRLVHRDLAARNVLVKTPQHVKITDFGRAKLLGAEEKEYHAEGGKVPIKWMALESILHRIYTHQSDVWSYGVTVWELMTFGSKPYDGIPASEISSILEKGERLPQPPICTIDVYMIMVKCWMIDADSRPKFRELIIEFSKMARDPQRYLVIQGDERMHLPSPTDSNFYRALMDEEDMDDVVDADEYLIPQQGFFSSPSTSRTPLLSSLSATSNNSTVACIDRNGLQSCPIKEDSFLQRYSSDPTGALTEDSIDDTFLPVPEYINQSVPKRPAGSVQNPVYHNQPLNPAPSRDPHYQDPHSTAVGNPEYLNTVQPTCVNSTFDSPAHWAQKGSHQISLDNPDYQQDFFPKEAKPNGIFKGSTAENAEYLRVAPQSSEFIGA
Sequence of EGFR bearing the L858R/T790M double mutation (P00533 25-1210 T790M/L858R): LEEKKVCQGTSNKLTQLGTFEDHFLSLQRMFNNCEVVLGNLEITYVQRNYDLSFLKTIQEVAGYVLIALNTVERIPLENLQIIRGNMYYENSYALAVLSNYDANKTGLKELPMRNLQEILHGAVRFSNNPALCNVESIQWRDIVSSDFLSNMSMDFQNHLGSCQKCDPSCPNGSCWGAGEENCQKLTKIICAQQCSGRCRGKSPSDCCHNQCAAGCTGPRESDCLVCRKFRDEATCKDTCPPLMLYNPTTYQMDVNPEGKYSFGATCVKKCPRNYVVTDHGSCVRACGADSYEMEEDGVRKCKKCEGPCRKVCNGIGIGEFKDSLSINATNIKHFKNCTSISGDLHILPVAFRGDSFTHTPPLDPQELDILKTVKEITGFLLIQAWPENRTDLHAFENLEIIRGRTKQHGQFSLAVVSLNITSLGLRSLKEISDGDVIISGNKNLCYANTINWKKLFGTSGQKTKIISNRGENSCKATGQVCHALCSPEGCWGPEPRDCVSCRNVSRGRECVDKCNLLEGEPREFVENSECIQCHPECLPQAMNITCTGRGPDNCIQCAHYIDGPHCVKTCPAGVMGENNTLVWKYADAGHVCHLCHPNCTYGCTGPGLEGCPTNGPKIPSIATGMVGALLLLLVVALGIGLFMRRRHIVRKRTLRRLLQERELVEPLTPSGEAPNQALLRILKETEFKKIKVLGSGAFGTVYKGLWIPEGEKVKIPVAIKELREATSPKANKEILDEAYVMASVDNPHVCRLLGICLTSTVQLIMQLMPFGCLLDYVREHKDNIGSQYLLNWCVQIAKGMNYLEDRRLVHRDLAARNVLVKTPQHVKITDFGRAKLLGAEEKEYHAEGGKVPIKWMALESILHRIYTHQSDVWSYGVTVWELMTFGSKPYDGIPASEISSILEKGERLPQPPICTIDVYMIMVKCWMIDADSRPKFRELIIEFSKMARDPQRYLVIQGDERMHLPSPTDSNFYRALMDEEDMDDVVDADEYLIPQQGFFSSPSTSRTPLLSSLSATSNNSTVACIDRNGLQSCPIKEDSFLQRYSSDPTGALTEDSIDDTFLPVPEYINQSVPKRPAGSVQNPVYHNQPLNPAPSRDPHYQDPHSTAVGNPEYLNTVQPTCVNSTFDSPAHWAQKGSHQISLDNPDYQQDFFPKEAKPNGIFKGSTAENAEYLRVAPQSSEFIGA

`C=CC(=O)Nc1ccc(OC)c(Nc2nccc(Nc3ccccc3P(C)(C)=O)n2)c1` [Example 13, N-(3-((4-((2-(dimethylphosphoryl)phenyl)amino)pyrimidin-2-yl)amino)-4-methoxyphenyl)acrylamide] was tested, and the IC50 [1] was ≥ 250 nM, the IC50 [2] was 51 to 100 nM and the IC50 [3] was < 51 nM. The IC50 (BAF3 PARENTAL) was ≥ 250 nM, the IC50 [4] was 101 to 250 nM and the IC50 [5] was ≥ 250 nM.

In the case of `C=CC(=O)Nc1cc(Nc2ncc(Cl)c(Nc3ccccc3P(C)(C)=O)n2)c(OC)cc1N(CC)CCN(CC)CC` [Example 61, N-(5-((5-chloro-4-((2-(dimethylphosphoryl)phenyl)amino)pyrimidin-2-yl)amino)-2-((2-(diethylamino)ethyl)(ethyl)amino)-4-methoxyphenyl)acrylamide], the IC50 [1] is reported as < 51 nM, the IC50 [2] is reported as < 51 nM and the IC50 [3] is reported as < 51 nM. For the same compound, the IC50 (BAF3 PARENTAL) was ≥ 250 nM, the IC50 [4] was < 51 nM and the IC50 [5] was < 51 nM.

In the case of `C=CC(=O)N(CCCN(C)C)c1ccc(OC)c(Nc2ncc(Cl)c(Nc3ccccc3P(C)(C)=O)n2)c1` [Example 21, N-(3-((5-chloro-4-((2-(dimethylphosphoryl)phenyl)amino)pyrimidin-2-yl)amino)-4-methoxyphenyl)-N-(3-(dimethylamino)propyl)acrylamide], the IC50 [1] is reported as ≥ 250 nM, the IC50 [2] is reported as 101 to 250 nM and the IC50 [3] is reported as 51 to 100 nM. For the same compound, the IC50 (BAF3 PARENTAL) was ≥ 250 nM, the IC50 [4] was 101 to 250 nM and the IC50 [5] was ≥ 250 nM.

`C=CC(=O)Nc1cc(Nc2ncc(Cl)c(Nc3ccccc3P(C)(C)=O)n2)c(OC)cc1N(C)CCN(CC)CC` [Example 33, N-(5-((5-chloro-4-((2-(dimethylphosphoryl)phenyl)amino)pyrimidin-2-yl)amino)-2-((2-(diethylamino)ethyl)(methyl)amino)-4-methoxyphenyl)acrylamide] was tested, and the IC50 [1] was < 51 nM, the IC50 [2] was < 51 nM and the IC50 [3] was < 51 nM. The IC50 (BAF3 PARENTAL) was ≥ 250 nM, the IC50 [4] was < 51 nM and the IC50 [5] was < 51 nM.

With `C=CC(=O)Nc1cc(Nc2ncc(Cl)c(Nc3ccccc3P(C)(C)=O)n2)c(OC)cc1F` [Example 22] the IC50 [1] was < 51 nM, the IC50 [2] was < 51 nM and the IC50 [3] was < 51 nM. The IC50 (BAF3 PARENTAL) was ≥ 250 nM, the IC50 [4] was < 51 nM and the IC50 [5] was < 51 nM.

`COCCOc1cc(OC)c(Nc2ncc(Cl)c(Nc3ccccc3P(C)(C)=O)n2)cc1NC(=O)/C=C/CN(C)C` [Example 57, (E)-N-(5-((5-chloro-4-((2-(dimethylphosphoryl)phenyl)amino)pyrimidin-2-yl)amino)-4-methoxy-2-(2-methoxyethoxy)phenyl)-4-(dimethylamino)but-2-enamide] was tested, and the IC50 [1] was ≥ 250 nM, the IC50 [2] was < 51 nM and the IC50 [3] was < 51 nM. The IC50 (BAF3 PARENTAL) was ≥ 250 nM, the IC50 [4] was ≥ 250 nM and the IC50 [5] was ≥ 250 nM.

`C=CC(=O)Nc1ccc(OCC)c(Nc2ncc(Cl)c(Nc3ccccc3P(C)(C)=O)n2)c1` [Example 47, N-(3-((5-chloro-4-((2-(dimethylphosphoryl)phenyl)amino)pyrimidin-2-yl)amino)-4-ethoxyphenyl)acrylamide] was tested, and the IC50 [1] was < 51 nM, the IC50 [2] was < 51 nM and the IC50 [3] was < 51 nM. The IC50 (BAF3 PARENTAL) was ≥ 250 nM, the IC50 [4] was < 51 nM and the IC50 [5] was < 51 nM.

For `C=CC(=O)Nc1cc(Nc2ncc(Cl)c(Nc3ccccc3P(C)(C)=O)n2)c(OC)cc1N1CCOCC1` [Example 32, N-(5-((5-chloro-4-((2-(dimethylphosphoryl)phenyl)amino)pyrimidin-2-yl)amino)-4-methoxy-2-morpholinophenyl)acrylamide], the IC50 [1] was ≥ 250 nM, the IC50 [2] was < 51 nM and the IC50 [3] was < 51 nM. For the same compound, the IC50 (BAF3 PARENTAL) was ≥ 250 nM, the IC50 [4] was < 51 nM and the IC50 [5] was 51 to 100 nM.

With `C=CC(=O)Nc1cc(Nc2ncc(Cl)c(Nc3ccccc3P(C)(C)=O)n2)c(OC)cc1OC` [Example 20, N-(5-((5-chloro-4-((2-(dimethylphosphoryl)phenyl)amino)pyrimidin-2-yl)amino)-2,4-dimethoxyphenyl)acrylamide] the IC50 [1] was ≥ 250 nM, the IC50 [2] was < 51 nM and the IC50 [3] was < 51 nM. The IC50 (BAF3 PARENTAL) was ≥ 250 nM, the IC50 [4] was < 51 nM and the IC50 [5] was 101 to 250 nM.

In the case of `C=CC(=O)Nc1ccc(OC)c(Nc2ncc(Cl)c(Nc3ccccc3P(=O)(CC)CC)n2)c1` [Example 15, N-(3-((5-chloro-4-((2-(diethylphosphoryl)phenyl)amino)pyrimidin-2-yl)amino)-4-methoxyphenyl)acrylamide], the IC50 [1] is reported as < 51 nM, the IC50 [2] is reported as < 51 nM and the IC50 [3] is reported as < 51 nM. The IC50 (BAF3 PARENTAL) was ≥ 250 nM, the IC50 [4] was < 51 nM and the IC50 [5] was < 51 nM.

With `C=CC(=O)Nc1cc(Nc2ncc(CC)c(Nc3ccccc3P(C)(C)=O)n2)c(OC)cc1N(C)CCN(CC)CC` [Example 62, N-(2-((2-(diethylamino)ethyl)(methyl)amino)-5-((4-((2-(dimethylphosphoryl)phenyl)amino)-5-ethylpyrimidin-2-yl)amino)-4-methoxyphenyl)acrylamide] the IC50 [1] was 51 to 100 nM, the IC50 [2] was < 51 nM and the IC50 [3] was 51 to 100 nM. For the same compound, the IC50 (BAF3 PARENTAL) was ≥ 250 nM, the IC50 [4] was < 51 nM and the IC50 [5] was < 51 nM.

`C=CC(=O)Nc1cc(Nc2ncc(Cl)c(Nc3ccccc3P(C)(C)=O)n2)c(OC)cc1CCN(CC)CC` [Example 41, N-(5-((5-chloro-4-((2-(dimethylphosphoryl)phenyl)amino)pyrimidin-2-yl)amino)-2-(2-(diethylamino)ethyl)-4-methoxyphenyl)acrylamide] was tested, and the IC50 [1] was < 51 nM, the IC50 [2] was < 51 nM and the IC50 [3] was < 51 nM. The IC50 (BAF3 PARENTAL) was ≥ 250 nM, the IC50 [4] was < 51 nM and the IC50 [5] was 51 to 100 nM.

For `C=CC(=O)Nc1ccc(OC)c(Nc2ncc(F)c(Nc3ccccc3P(C)(C)=O)n2)c1` [Example 11, N-(3-((4-((2-(dimethylphosphoryl)phenyl)amino)-5-fluoropyrimidin-2-yl)amino)-4-methoxyphenyl)acrylamide], the IC50 [1] was 101 to 250 nM, the IC50 [2] was < 51 nM and the IC50 [3] was < 51 nM. For the same compound, the IC50 (BAF3 PARENTAL) was ≥ 250 nM, the IC50 [4] was 51 to 100 nM and the IC50 [5] was 101 to 250 nM.

In the case of `C=CC(=O)Nc1ccc(OC)c(Nc2ncc(Cl)c(Nc3ccccc3P(C)(C)=O)n2)c1` [Example 1, N-(3-((5-chloro-4-((2-(dimethylphosphoryl)phenyl)amino)pyrimidin-2-yl)amino)-4-methoxyphenyl)acrylamide], the IC50 [1] is reported as 51 to 100 nM, the IC50 [2] is reported as < 51 nM and the IC50 [3] is reported as < 51 nM. The IC50 (BAF3 PARENTAL) was ≥ 250 nM, the IC50 [4] was < 51 nM and the IC50 [5] was < 51 nM.

With `C=CC(=O)Nc1cc(Nc2ncc(Cl)c(Nc3ccccc3P(C)(C)=O)n2)c(OC)cc1OCCN(C)CCOC` [Example 39, N-(5-((5-chloro-4-((2-(dimethylphosphoryl)phenyl)amino)pyrimidin-2-yl)amino)-4-methoxy-2-(2-((2-methoxyethyl)(methyl)amino)ethoxy)phenyl)acrylamide] the IC50 [1] was < 51 nM, the IC50 [2] was < 51 nM and the IC50 [3] was < 51 nM. For the same compound, the IC50 (BAF3 PARENTAL) was ≥ 250 nM, the IC50 [4] was < 51 nM and the IC50 [5] was < 51 nM.

In the case of `C=CC(=O)Nc1ccc(OC)c(Nc2ncc(Br)c(Nc3ccccc3P(C)(C)=O)n2)c1` [Example 12, N-(3-((5-bromo-4-((2-(dimethylphosphoryl)phenyl)amino)pyrimidin-2-yl)amino)-4-methoxyphenyl)acrylamide], the IC50 [1] is reported as < 51 nM, the IC50 [2] is reported as < 51 nM and the IC50 [3] is reported as < 51 nM. For the same compound, the IC50 (BAF3 PARENTAL) was ≥ 250 nM, the IC50 [4] was < 51 nM and the IC50 [5] was < 51 nM.

For `C=CC(=O)Nc1cc(Nc2ncc(Cl)c(Nc3ccccc3P(C)(C)=O)n2)c(OC)cc1O[C@H](COC)CN(CC)CC` (stereo in doubt) [Example 30, rac-(R)—N-(5-((5-chloro-4-((2-(dimethylphosphoryl)phenyl)amino)pyrimidin-2-yl)amino)-2-((1-(diethylamino)-3-methoxypropan-2-yl)oxy)-4-methoxyphenyl)acrylamide], the IC50 [1] was < 51 nM, the IC50 [2] was < 51 nM and the IC50 [3] was < 51 nM. For the same compound, the IC50 (BAF3 PARENTAL) was ≥ 250 nM, the IC50 [4] was < 51 nM and the IC50 [5] was < 51 nM.

`COc1ccc(NC(=O)/C=C/CN(C)C)cc1Nc1ncc(Cl)c(Nc2ccccc2P(C)(C)=O)n1` [Example 2, (E)-N-(3-((5-chloro-4-((2-(dimethylphosphoryl)phenyl)amino)pyrimidin-2-yl)amino)-4-methoxyphenyl)-4-(dimethylamino)but-2-enamide] was tested, and the IC50 [1] was 101 to 250 nM, the IC50 [2] was < 51 nM and the IC50 [3] was < 51 nM. For the same compound, the IC50 (BAF3 PARENTAL) was ≥ 250 nM, the IC50 [4] was < 51 nM and the IC50 [5] was 51 to 100 nM.

For `C=CC(=O)Nc1ccc(OC)c(Nc2ncc(Cl)c(Nc3cccc(C)c3P(C)(C)=O)n2)c1` [Example 14, N-(3-((5-chloro-4-((2-(dimethylphosphoryl)-3-methylphenyl)amino)pyrimidin-2-yl)amino)-4-methoxyphenyl)acrylamide], the IC50 [1] was 51 to 100 nM, the IC50 [2] was < 51 nM and the IC50 [3] was < 51 nM. For the same compound, the IC50 (BAF3 PARENTAL) was ≥ 250 nM, the IC50 [4] was < 51 nM and the IC50 [5] was < 51 nM.

With `C=CC(=O)Nc1cc(Nc2ncc(Cl)c(Nc3ccccc3P(C)(C)=O)n2)c(OC)cc1N1CCN(C)CC1` [Example 18, N-(5-((5-chloro-4-((2-(dimethylphosphoryl)phenyl)amino)pyrimidin-2-yl)amino)-4-methoxy-2-(4-methylpiperazin-1-yl)phenyl)acrylamide] the IC50 [1] was 51 to 100 nM, the IC50 [2] was < 51 nM and the IC50 [3] was < 51 nM. For the same compound, the IC50 (BAF3 PARENTAL) was ≥ 250 nM, the IC50 [4] was < 51 nM and the IC50 [5] was 51 to 100 nM.
